Columns and labels:
[1] = molecular target: Voltage-dependent N-type calcium channel subunit alpha-1B (Rattus norvegicus, UniProt Q02294); type: functional
[2] = molecular target: Gamma-aminobutyric acid type B receptor subunit 1 (Homo sapiens, UniProt Q9UBS5)
[3] = molecular target: T1, Muscarinic acetylcholine receptor M5 (Homo sapiens, UniProt P08912)
T1 sequence (P08912 whole entry): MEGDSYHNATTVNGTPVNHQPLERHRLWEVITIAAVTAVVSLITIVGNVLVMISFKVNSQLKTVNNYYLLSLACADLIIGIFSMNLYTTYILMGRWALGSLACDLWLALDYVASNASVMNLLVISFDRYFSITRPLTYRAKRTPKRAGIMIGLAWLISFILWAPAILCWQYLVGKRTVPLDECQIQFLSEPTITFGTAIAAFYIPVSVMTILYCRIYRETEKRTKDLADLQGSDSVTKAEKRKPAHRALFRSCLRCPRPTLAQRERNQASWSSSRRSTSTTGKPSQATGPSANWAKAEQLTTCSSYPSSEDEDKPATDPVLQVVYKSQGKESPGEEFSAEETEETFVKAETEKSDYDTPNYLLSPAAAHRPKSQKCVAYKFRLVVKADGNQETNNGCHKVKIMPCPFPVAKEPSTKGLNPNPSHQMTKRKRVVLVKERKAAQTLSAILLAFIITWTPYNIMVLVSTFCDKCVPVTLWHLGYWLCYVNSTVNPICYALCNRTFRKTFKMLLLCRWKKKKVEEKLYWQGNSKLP

Thromboxane A2 receptor [4] = molecular target: T2, Thromboxane A2 receptor (Homo sapiens, UniProt P21731); type: functional
T2 sequence (P21731 whole entry): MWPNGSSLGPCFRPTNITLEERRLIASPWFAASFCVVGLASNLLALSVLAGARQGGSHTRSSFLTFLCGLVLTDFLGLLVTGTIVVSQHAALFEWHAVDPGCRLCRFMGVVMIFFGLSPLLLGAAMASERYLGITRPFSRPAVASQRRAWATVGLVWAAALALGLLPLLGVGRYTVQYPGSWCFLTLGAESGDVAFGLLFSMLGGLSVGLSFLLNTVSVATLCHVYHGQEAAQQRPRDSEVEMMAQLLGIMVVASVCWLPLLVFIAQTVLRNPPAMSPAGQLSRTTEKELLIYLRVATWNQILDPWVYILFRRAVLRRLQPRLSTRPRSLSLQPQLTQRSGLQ

Thromboxane A2 receptor [5] = molecular target: T2, Thromboxane A2 receptor; type: functional, cell-based
Estrogen receptor = molecular target: T3, Estrogen receptor (Homo sapiens, UniProt P03372); type: functional
T3 sequence (P03372 whole entry): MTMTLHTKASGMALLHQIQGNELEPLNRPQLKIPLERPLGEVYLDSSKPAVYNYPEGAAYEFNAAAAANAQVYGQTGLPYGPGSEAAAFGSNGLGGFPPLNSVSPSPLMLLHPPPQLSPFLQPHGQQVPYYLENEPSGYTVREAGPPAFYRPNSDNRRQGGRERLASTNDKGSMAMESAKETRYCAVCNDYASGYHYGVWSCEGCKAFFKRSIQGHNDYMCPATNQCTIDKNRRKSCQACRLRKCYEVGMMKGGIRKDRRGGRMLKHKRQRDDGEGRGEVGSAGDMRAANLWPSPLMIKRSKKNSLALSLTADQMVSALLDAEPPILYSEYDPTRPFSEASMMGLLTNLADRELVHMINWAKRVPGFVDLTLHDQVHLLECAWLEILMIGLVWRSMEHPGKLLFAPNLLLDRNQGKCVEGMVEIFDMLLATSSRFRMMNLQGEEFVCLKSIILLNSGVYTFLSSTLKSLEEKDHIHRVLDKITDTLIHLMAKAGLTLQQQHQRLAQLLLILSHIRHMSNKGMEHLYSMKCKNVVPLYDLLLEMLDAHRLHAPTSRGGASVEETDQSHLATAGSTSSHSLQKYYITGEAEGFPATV

[6] = molecular target: 5-hydroxytryptamine receptor 2A (Homo sapiens, UniProt P28223)
Chain of 5-hydroxytryptamine receptor 2A (P28223 whole entry): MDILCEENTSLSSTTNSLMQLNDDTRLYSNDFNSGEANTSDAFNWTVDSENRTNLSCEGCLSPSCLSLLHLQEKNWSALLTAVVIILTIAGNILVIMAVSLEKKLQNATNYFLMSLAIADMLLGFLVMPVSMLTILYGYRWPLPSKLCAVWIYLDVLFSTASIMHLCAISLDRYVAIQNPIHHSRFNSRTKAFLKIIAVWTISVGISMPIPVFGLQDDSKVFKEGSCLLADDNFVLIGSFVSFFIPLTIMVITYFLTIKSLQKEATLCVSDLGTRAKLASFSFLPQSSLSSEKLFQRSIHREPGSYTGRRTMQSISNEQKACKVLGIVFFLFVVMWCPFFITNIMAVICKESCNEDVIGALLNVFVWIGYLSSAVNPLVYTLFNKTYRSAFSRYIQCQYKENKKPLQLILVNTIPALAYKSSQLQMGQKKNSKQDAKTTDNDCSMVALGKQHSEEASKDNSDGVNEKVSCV

[7] = molecular target: Voltage-dependent L-type calcium channel subunit alpha-1C (Homo sapiens, UniProt Q13936); type: functional, cell-based
Adenosine receptor A1 = molecular target: T4, Adenosine receptor A1 (Homo sapiens, UniProt P30542)
T4 sequence (P30542 whole entry): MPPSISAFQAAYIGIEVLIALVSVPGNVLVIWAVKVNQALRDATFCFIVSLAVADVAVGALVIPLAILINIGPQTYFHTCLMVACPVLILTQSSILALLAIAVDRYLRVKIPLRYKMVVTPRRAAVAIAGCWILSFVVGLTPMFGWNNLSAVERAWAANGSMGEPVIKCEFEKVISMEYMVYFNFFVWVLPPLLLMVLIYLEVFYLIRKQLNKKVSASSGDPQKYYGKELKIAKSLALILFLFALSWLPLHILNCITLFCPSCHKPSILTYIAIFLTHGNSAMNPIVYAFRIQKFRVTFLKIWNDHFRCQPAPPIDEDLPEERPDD
Further: assay procedure not described here.

Chain of Voltage-dependent N-type calcium channel subunit alpha-1B (Q02294 whole entry): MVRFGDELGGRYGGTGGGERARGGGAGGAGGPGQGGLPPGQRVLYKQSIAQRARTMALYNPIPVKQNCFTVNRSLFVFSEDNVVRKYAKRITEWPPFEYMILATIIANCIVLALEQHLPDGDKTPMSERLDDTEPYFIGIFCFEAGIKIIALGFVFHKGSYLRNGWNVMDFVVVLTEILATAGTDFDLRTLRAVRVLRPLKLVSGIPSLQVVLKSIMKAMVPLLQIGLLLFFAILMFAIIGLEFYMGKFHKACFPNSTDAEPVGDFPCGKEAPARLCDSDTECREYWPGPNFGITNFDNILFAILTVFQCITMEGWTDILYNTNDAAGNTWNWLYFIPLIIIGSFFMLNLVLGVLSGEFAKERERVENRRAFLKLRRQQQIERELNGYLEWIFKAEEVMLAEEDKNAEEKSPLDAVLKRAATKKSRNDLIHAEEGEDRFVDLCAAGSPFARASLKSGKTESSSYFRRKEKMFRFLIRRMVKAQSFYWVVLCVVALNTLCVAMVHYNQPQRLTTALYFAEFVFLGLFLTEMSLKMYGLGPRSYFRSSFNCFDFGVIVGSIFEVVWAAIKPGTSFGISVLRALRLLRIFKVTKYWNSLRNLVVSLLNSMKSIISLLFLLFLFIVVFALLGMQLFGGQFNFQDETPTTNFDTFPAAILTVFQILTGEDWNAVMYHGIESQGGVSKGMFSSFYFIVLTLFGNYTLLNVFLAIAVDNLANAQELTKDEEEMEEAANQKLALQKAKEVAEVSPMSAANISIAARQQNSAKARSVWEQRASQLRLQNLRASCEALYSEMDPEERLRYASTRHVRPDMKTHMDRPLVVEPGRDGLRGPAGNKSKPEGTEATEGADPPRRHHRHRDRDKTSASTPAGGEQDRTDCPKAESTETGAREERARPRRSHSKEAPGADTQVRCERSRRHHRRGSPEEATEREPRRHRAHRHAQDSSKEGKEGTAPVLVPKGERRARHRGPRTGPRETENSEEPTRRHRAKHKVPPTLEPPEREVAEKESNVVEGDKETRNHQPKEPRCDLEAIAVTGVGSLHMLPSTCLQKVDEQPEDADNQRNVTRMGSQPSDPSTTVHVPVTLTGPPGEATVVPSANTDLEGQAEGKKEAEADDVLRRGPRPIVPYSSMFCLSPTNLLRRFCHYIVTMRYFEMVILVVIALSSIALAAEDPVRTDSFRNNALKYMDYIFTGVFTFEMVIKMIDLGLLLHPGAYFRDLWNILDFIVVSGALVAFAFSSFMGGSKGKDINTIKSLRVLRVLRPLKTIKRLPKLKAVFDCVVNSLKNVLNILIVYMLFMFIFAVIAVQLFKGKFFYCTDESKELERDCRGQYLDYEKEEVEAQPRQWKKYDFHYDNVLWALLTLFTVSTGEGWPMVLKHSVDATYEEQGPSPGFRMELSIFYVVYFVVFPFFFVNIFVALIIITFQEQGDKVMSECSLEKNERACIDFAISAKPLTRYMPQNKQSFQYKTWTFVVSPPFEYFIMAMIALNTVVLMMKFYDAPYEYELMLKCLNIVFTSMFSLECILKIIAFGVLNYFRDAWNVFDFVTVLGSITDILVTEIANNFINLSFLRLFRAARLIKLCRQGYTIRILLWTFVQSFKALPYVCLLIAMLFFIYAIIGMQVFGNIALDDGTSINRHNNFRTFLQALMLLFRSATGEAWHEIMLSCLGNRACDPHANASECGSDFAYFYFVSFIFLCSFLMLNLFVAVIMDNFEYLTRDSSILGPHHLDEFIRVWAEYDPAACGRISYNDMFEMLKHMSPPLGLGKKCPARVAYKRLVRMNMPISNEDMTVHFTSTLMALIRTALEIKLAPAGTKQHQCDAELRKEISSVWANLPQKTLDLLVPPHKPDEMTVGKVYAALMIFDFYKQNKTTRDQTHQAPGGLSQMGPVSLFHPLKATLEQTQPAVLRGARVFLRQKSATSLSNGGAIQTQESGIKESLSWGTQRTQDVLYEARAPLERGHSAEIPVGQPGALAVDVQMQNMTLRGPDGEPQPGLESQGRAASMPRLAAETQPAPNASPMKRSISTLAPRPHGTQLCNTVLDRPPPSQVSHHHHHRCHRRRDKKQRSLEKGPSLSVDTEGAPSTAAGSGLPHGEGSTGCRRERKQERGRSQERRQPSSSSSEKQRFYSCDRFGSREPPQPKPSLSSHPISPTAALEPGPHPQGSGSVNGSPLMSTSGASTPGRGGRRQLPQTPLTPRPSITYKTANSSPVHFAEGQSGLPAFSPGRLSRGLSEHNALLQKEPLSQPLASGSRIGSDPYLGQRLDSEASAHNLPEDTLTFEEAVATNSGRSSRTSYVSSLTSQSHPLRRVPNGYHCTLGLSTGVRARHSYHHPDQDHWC
Chain of Gamma-aminobutyric acid type B receptor subunit 1 (Q9UBS5 whole entry): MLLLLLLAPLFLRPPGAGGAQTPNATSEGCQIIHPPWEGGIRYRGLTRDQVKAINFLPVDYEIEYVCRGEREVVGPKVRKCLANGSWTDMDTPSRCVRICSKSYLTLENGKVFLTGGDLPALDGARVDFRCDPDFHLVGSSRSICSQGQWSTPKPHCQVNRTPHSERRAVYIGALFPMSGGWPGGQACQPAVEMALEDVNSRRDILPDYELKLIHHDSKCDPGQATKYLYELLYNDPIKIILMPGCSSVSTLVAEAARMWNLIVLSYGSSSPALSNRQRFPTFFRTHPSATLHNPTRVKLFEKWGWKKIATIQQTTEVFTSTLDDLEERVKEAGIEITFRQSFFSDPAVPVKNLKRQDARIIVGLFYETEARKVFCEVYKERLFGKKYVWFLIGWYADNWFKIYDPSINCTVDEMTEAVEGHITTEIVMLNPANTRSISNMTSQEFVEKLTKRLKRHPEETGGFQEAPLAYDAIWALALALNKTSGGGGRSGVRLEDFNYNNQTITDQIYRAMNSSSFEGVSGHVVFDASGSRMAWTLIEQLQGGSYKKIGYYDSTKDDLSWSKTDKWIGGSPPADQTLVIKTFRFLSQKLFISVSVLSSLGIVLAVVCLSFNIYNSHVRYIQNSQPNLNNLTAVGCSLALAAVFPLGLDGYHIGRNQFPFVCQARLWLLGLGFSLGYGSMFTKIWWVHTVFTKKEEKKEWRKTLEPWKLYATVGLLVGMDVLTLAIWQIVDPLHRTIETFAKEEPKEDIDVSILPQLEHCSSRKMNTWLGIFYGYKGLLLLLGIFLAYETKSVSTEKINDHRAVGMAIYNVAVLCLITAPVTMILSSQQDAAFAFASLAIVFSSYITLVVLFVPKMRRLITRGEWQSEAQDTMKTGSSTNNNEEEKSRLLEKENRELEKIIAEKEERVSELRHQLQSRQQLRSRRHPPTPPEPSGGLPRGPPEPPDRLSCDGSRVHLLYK

Compound `CCN(CC)CCNC(=O)c1cc(Cl)c(N)cc1OC` [METOCLOPRAMIDE] has an AC50 [1] of over 10 µM.

`CCOC(=O)[C@H](CCc1ccccc1)N[C@@H](C)C(=O)N1CCC[C@H]1C(=O)O` was tested, and the AC50 [2] was over 10 µM, the AC50 [1] was over 10 µM and the AC50 [3] was over 10 µM.

Compound `CN(C)CCCN1c2ccccc2CCc2ccc(Cl)cc21` [CLOMIPRAMINE] has an AC50 [1] of over 10 µM.

`CC(C)Cc1ccc(CC(=O)O)cc1` [IBUFENAC] was tested, and the AC50 (Thromboxane A2 receptor [4]) was over 30 µM and the AC50 (Thromboxane A2 receptor [5]) was over 30 µM.

Work on `CCc1ccc(CCOc2ccc(CC3SC(=O)NC3=O)cc2)nc1` (configuration not stated) [PIOGLITAZONE] yielded an AC50 [2] of over 10 µM and an AC50 [1] of over 10 µM.

Work on `CC(=O)c1ccc2c(c1)N(CCCN1CCN(CCO)CC1)c1ccccc1S2` [ACETOPHENAZINE] yielded an AC50 (Estrogen receptor) of over 30 µM.

For `CC(C)C(=O)Nc1ccc([N+](=O)[O-])c(C(F)(F)F)c1` [FLUTAMIDE], the AC50 (Thromboxane A2 receptor [4]) was over 10 µM and the AC50 (Thromboxane A2 receptor [5]) was 6 µM.

`NC(N)=Nc1nc(CSCCC(N)=NS(N)(=O)=O)cs1` [FAMOTIDINE] gave an AC50 [1] of over 10 µM and an AC50 [3] of over 10 µM.

With `CC(N)Cc1ccccc1` (configuration not stated) [AMPHETAMINE] the AC50 [1] was over 10 µM, the AC50 [6] was over 10 µM and the AC50 (Estrogen receptor) was over 30 µM.

Compound `CCc1nn(CCCN2CCN(c3cccc(Cl)c3)CC2)c(=O)n1CCOc1ccccc1` [NEFAZODONE] has an AC50 [2] of over 10 µM and an AC50 [1] of over 10 µM.

Work on `CCCS(=O)(=O)Nc1ccc(F)c(C(=O)c2c[nH]c3ncc(-c4ccc(Cl)cc4)cc23)c1F` [VEMURAFENIB] yielded an AC50 [7] of over 30 µM.

`Cc1cc2c(cc1CC(=O)c1sccc1S(=O)(=O)Nc1onc(C)c1Cl)OCO2` [SITAXENTAN] was tested, and the AC50 (Adenosine receptor A1) was over 30 µM.

`CCC[C@@H]1C[C@@H](C(=O)N[C@@H]([C@H]2O[C@H](SC)[C@H](O)[C@@H](O)[C@H]2O)[C@H](C)Cl)N(C)C1` [CLINDAMYCIN] showed an AC50 [1] of over 10 µM.

For `OCCN1CCN(CCCN2c3ccccc3C=Cc3ccccc32)CC1` [OPIPRAMOL], the AC50 (Adenosine receptor A1) was over 30 µM.

Work on `CC[C@H](C)C(=O)O[C@H]1C[C@H](O)C=C2C=C[C@H](C)[C@H](CC[C@@H](O)C[C@@H](O)CC(=O)O)[C@H]21` [PRAVASTATIN] yielded an AC50 (Estrogen receptor) of over 30 µM.

`O=C1c2c(O)c(=O)ccn2N([C@@H]2c3ccccc3SCc3c2ccc(F)c3F)[C@@H]2COCCN12` [BALOXAVIR] gave an AC50 [7] of over 50 µM.

`OC[C@@H](O)[C@@H](O)[C@H](O)[C@H](O)CO` [MANNITOL] was tested, and the AC50 (Adenosine receptor A1) was over 30 µM.

`NS(=O)(=O)c1cc2c(cc1Cl)NCNS2(=O)=O` [HYDROCHLOROTHIAZIDE] was tested, and the AC50 [2] was over 10 µM, the AC50 [1] was over 10 µM and the AC50 [3] was over 10 µM.

`NC(=O)c1cnccn1` [PYRAZINAMIDE] was tested, and the AC50 (Thromboxane A2 receptor [4]) was over 30 µM, the AC50 [1] was over 10 µM and the AC50 (Thromboxane A2 receptor [5]) was over 30 µM.

`CS(=O)(=O)c1ccc([C@@H](O)[C@@H](CO)NC(=O)C(Cl)Cl)cc1` [THIAMPHENICOL] gave an AC50 [7] of over 50 µM.

Work on `CC(C(=O)O)c1ccc(N2CC=CC2)c(Cl)c1` (configuration not stated) [PIRPROFEN] yielded an AC50 [1] of over 10 µM and an AC50 [6] of over 10 µM.

With `Cc1cccc(C)c1OCC(C)N` (configuration not stated) [MEXILETINE] the AC50 [7] was over 50 µM.

Compound `CC(C)NNC(=O)c1ccncc1` [IPRONIAZID] has an AC50 (Thromboxane A2 receptor [4]) of over 30 µM, an AC50 (Thromboxane A2 receptor [5]) of over 30 µM and an AC50 (Estrogen receptor) of over 30 µM.

In the case of `CO/N=C(\C(=O)N[C@@H]1C(=O)N2C(C(=O)[O-])=C(C[N+]3(C)CCCC3)CS[C@H]12)c1csc(N)n1`, the AC50 (Thromboxane A2 receptor [4]) is reported as over 300 µM, the AC50 (Thromboxane A2 receptor [5]) is reported as over 300 µM and the AC50 (Estrogen receptor) is reported as 54 µM.

Compound `CC(C)OC(=O)[C@H](C)N[P@](=O)(OC[C@H]1O[C@@H](n2ccc(=O)[nH]c2=O)[C@](C)(F)[C@@H]1O)Oc1ccccc1` [SOFOSBUVIR] has an AC50 [7] of over 50 µM.

In the case of `COC(=O)[C@@H]1CC2=CC(=O)CC[C@]2(C)[C@@]23O[C@@H]2C[C@@]2(C)[C@@H](CC[C@@]24CCC(=O)O4)[C@H]13` [EPLERENONE], the AC50 [1] is reported as over 10 µM, the AC50 [6] is reported as over 10 µM and the AC50 (Estrogen receptor) is reported as over 30 µM.

`O=C(CCCCCCC(=O)Nc1ccccc1)NO` [VORINOSTAT] was tested, and the AC50 [2] was over 10 µM, the AC50 [1] was over 10 µM and the AC50 [3] was over 10 µM. The AC50 [6] was over 10 µM.

`CN1CCCC(n2nc(Cc3ccc(Cl)cc3)c3ccccc3c2=O)CC1` (configuration not stated) [AZELASTINE] was tested, and the AC50 (Estrogen receptor) was over 30 µM.

Compound `CN(CCOc1ccc(NS(C)(=O)=O)cc1)CCc1ccc(NS(C)(=O)=O)cc1` [DOFETILIDE] has an AC50 [1] of over 10 µM and an AC50 [6] of over 10 µM.

`CC(C)NCC(O)COc1ccc(COCCOC(C)C)cc1` (configuration not stated) [BISOPROLOL] was tested, and the AC50 [1] was over 10 µM and the AC50 [6] was over 10 µM.

For `COC(=O)N[C@H](C(=O)N1CCC[C@H]1c1nc(-c2ccc(-c3ccc(-c4c[nH]c([C@@H]5CCCN5C(=O)[C@@H](NC(=O)OC)C(C)C)n4)cc3)cc2)c[nH]1)C(C)C`, the AC50 [7] was over 30 µM.

For `COc1cc(Nc2c(C#N)cnc3cc(OCCCN4CCN(C)CC4)c(OC)cc23)c(Cl)cc1Cl` [BOSUTINIB], the AC50 [2] was over 10 µM, the AC50 [1] was over 10 µM and the AC50 [3] was 12.1 µM. It also gave an AC50 (Adenosine receptor A1) of over 30 µM.

With `C#C[C@]1(O)CC[C@H]2[C@@H]3CCc4cc(O)ccc4[C@H]3CC[C@@]21C` [ETHINYL ESTRADIOL] the AC50 [2] was over 10 µM, the AC50 [1] was over 10 µM and the AC50 (Adenosine receptor A1) was over 30 µM.

With `Nc1nc(N)c2nc(-c3ccccc3)c(N)nc2n1` the AC50 [2] was over 10 µM, the AC50 (Thromboxane A2 receptor [4]) was over 30 µM and the AC50 [1] was over 10 µM. It also gave an AC50 [3] of over 10 µM and an AC50 (Thromboxane A2 receptor [5]) of over 30 µM.

`CC(=O)OCC(=O)[C@@]1(O)CC[C@H]2[C@@H]3CCC4=CC(=O)CC[C@]4(C)[C@H]3C(=O)C[C@@]21C` [CORTISONE ACETATE] gave an AC50 (Adenosine receptor A1) of over 30 µM.

Work on `Oc1ncnc2[nH]ncc12` [ALLOPURINOL] yielded an AC50 (Thromboxane A2 receptor [4]) of over 30 µM, an AC50 [1] of over 10 µM and an AC50 (Thromboxane A2 receptor [5]) of over 30 µM.

`C[C@H]1O[C@H](O[C@H]2[C@H](O)[C@@H](O)[C@@H](O[C@H]3[C@H](O)[C@@H](O)C(O)O[C@@H]3CO)O[C@@H]2CO)[C@H](O)[C@@H](O)[C@@H]1N[C@H]1C=C(CO)[C@@H](O)[C@H](O)[C@H]1O` (some centres not stated) [ACARBOSE] showed an AC50 [2] of over 10 µM, an AC50 [1] of over 10 µM and an AC50 [3] of over 10 µM.

For `OCc1cc([C@@H](O)CNCCCCCCOCCOCc2c(Cl)cccc2Cl)ccc1O` [VILANTEROL], the AC50 (Estrogen receptor) was over 30 µM.

`COc1cc2c(cc1OC)C(=O)C(CC1CCN(Cc3ccccc3)CC1)C2` (configuration not stated) [DONEPEZIL] was tested, and the AC50 [2] was over 10 µM, the AC50 [3] was 15.4 µM and the AC50 [6] was over 10 µM.

With `O=C(NC[C@H]1CN(c2ccc(N3CCOCC3=O)cc2)C(=O)O1)c1ccc(Cl)s1` [RIVAROXABAN] the AC50 (Adenosine receptor A1) was over 30 µM.

`CCC(=O)O[C@H]1[C@H](O[C@@H]2[C@@H](C)[C@H](O[C@H]3C[C@@](C)(OC)[C@@H](O)[C@H](C)O3)[C@@H](C)C(=O)O[C@H](CC)[C@@](C)(O)[C@H](O)[C@@H](C)C(=O)[C@H](C)C[C@@]2(C)O)O[C@H](C)C[C@@H]1N(C)C` [ERYTHROMYCIN PROPIONATE] was tested, and the AC50 (Adenosine receptor A1) was over 30 µM.

Work on `CCOC(=O)N[C@@H]1CC[C@@H]2[C@@H](C1)C[C@H]1C(=O)O[C@H](C)[C@H]1[C@H]2/C=C/c1ccc(-c2cccc(F)c2)cn1` [VORAPAXAR] yielded an AC50 [7] of over 50 µM.
